Assay results reported in patent US10039729B2, “Use of kukoamine A and kukoamine B” (Tianjin Chase Sun Pharmaceutical Co., Ltd., priority 2010, dated 2018).

Key:
[1] = tested on: mice challenged by heat-killed Escherichia coli; assay: Protection on mice challenged by lethal dose of heat-killed Escherichia coli; type: in vivo, Kunming mice
Protocol: Preparation of heat-killed Escherichia coli (E. coli) ATCC 35218: Bacteria culture was performed according to Clinical Laboratory Procedures. Single bacterial colony of E. coli from LB agar plates were picked and transferred into 10 mL sterile liquid of LB broth using a sterile inoculating loop, and cultivated at 37° C. in a shaker (250 rpm). After medium become turbid, these culture medium were then transferred to 2000 mL of fresh LB medium and cultivated at 37° C. in a shaker (250 rpm) for 12 h. The suspension was collected, transferred into 1000 ml centrifuge tube, and centrifuged at 5000 rpm for 15 min. The supernatant was discarded. The bacteria were collected, washed and resuspended into sterile saline, and then centrifuged again under the same condition. Above-mentioned process was repeated thrice. The bacteria pellet was resuspended with a pipet in 50 ml sterile saline, transferred into 100 ml saline bottle, and boiled in electric furnace for 30 min. Then the suspension of heat-killed Escherichia coli was obtained. The suspension of E. coli was diluted by 100 fold, and measured OD value at 600 nm on nucleic acid protein analyzer. Conversion was made according to the regression equation of OD value and concentration, and the suspension was diluted according to the conversion result. Then the operating fluids for mice injection were obtained.
Observation of CL-4b protection on mice challenged by heat-killed Escherichia coli: A total of […] Kunming mice (18˜20 g), half male and half female, were divided into three groups randomly: CL-4b control group, heat-killed E. coli group and CL-4b treatment group. Each group has 10 mice, half male and half female. CL-4b control group was injected with CL-4b (60 mg/kg) and sterile saline; heat-killed E. coli group was injected with heat-killed Escherichia coli (1.0×10^10 CFU/ml) and sterile saline; CL-4b treatment group was injected with CL-4 ([…]) at 10 min after heat-killed E. coli injection. The injection volume of each solution was 200 μl per 20 g body weight via tail vein. […]
(1) Single dose experiment: Experiment 1: A total of 40 Kunming mice (18-20 g), half male and half female, were divided into two groups randomly, heat-killed E. coli control group and KB (30 mg/kg) treatment group; each group has 20 mice; after animal weighing, heat-killed E. coli group was injected with heat-killed Escherichia coli (200 μl per 20 g body weight) and sterile saline (200 μl per 20 g body weight); KB treatment group was injected with KB (200 μl per 20 g body weight) at 5 min after heat-killed E. coli was injected; the injection doses of heat-killed E. coli were 1.0×10^11 CFU/kg, and injection doses of KB were 30 mg/kg. […]

RAW264.7 cells = assay: Western blot of IκB-α and p38 phosphorylation in RAW264.7 cells; type: cell-based, murine
Protocol: Extraction of cytoplasmic protein: RAW264.7 cells were diluted to 1×10^6/ml in DMEM supplemented with 10% (v/v) NCS; 5 ml of the above suspension was transferred into cell culture bottles and cultured at 37° C. in a 5% CO2 humidified incubator for 4 h; a preliminary experiment was first performed, in which RAW264.7 cells were stimulated by LPS (100 ng/ml), CpG DNA (10 μg/ml), TNF-α (50 ng/ml) or IL-1β (50 ng/ml) for 15, 30, 45 and 60 min respectively; for the purpose of formal experiment a medium group, a KB control group, stimulation group (LPS, CpG DNA, TNF-α or IL-1β) and a KB treatment group (LPS+KB group, CpG DNA+KB group, TNF-α+KB group and IL-1β+KB group) were established; no reagent was added in medium group; KB control group was only added with KB (200 μM); stimulation group was added with LPS (100 ng/ml), CpG DNA (10 μg/ml), TNF-α (50 ng/ml) or IL-1β (50 ng/ml); KB treatment group was added with KB (100, 200 μM) in the meantime of adding LPS, CpG DNA, TNF-α or IL-1β; the duration time of cell culture was based on the preliminary experiment (30 min); cells were washed with PBS and centrifuged to collect cells; supernatant was sucked and discarded; the cell pellet was collected for further experiment; each 20 μl cell pellet was added with 200 μl cytoplasm protein extraction reagents supplemented with PMSF, shook vigorously for 5 seconds to completely suspend and disperse the cell pellet, chilled for 10 to 15 min in an ice bath, centrifuged at 12,000 g at 4° C. for 5 min; the supernatant was instantly transferred into a precooled plastic tube, which was the cytoplasmic protein obtained by extraction;
(3) Sample preparation: Protein sample was mixed with 5× concentrated loading buffer in proportion of 4:1, and denatured at 100° C. for 5 min;
(5) Loading: Sample loading volume was adjusted according to protein concentration to ensure 20 μg protein content of each sample; samples were loaded with microsyringe (5 μl protein molecular weight marker were loaded); […]

[2] = single dose KB 60 mg/kg, E. coli 1.0×10^11 CFU/kg
[3] = KB 100 and 200 μM, 30 min, western blot

NCCCN(CCCCNCCCNC(=O)CCc1ccc(O)c(O)c1)C(=O)CCc1ccc(O)c(O)c1 [KB, Kukoamine B]
survival rates, multiple dose ([1]; KB 1.25, 2.5 and 5 mg/kg every 8 h for 3 days): improve survival rates | mortality rate in 7 days, single dose ([1]; KB 15, 30 and 60 mg/kg 5 min after heat-killed E. coli): decreased with the increasing doses of KB | protective effect, KB given after 2 h (4, 6 and 8 h) [1, 2]: no longer has a significant protective effect | survival rate, KB given 2 h after heat-killed E. coli [1, 2]: still can increase the survival rate | expression of IκB-α and p-IκB-α, KB alone (RAW264.7 cells; KB 200 μM alone vs medium group): had no influence | degradation of IκB-α and up-regulated expression of p-IκB-α induced by LPS and CpG DNA (RAW264.7 cells; [3]): both were significantly inhibited | p-p38 expression induced by LPS and CpG DNA (RAW264.7 cells; [3]): significantly inhibited
